Experimental data published in patent publication US8343475B2, “Small cationic antimicrobial peptides” (priority 2006, dated 2013).
Converted amounts (≈) assume the structure as drawn. Residues, ends and D or L forms follow the SMILES beside them.

Tests used:
[1] = system: Pseudomonas aeruginosa PAO1 strain H103; type: cell-based; details: PAO1
Outline: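 Modified broth microdilution MIC in Mueller Hinton medium, peptides diluted in 0.01% acetic acid/0.2% BSA, polypropylene plates. Inoculum 2-7×10^5 CFU/ml, overnight at 37 °C; MIC is the lowest concentration with no visible growth.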

[2] = system: Enterococcus faecalis ATCC29212; type: cell-based; details: ATCC29212
Outline: (§1)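 Modified microdilution, MH broth, polypropylene wells. Peptide dilutions (10× stocks in 0.01% HOAc/0.2% BSA) mixed 1:10 with medium; cells 2-7×10^5 CFU/ml; 37° C overnight; endpoint no growth.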

Escherichia coli UB1005 = type: cell-based; details: UB1005
Outline: as §1

[3] = system: Staphylococcus aureus ATCC25923; type: cell-based; details: ATCC25923
Outline: as §1

[4] = system: clinical isolate of Staphylococcus epidermidis; type: cell-based; details: clinical isolate of
Outline: as §1

[5] = system: lab isolate of Candida albicans; type: cell-based; details: lab isolate of
Outline: as §1

[6] = system: wild-type Salmonella enterica ssp. typhimurium; type: cell-based
Outline: as §1

[7] = system: MCP-3 release by human PBMC; test: Chemokine induction in PBMC (capture ELISA); type: cell-based; details: background (6) subtracted
Outline: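 Human PBMC from healthy donors (Ficoll-isolated), 7.5×10^5 cells at 0.75–1×10^6 cells/ml, treated with peptides at 20 or 100 μg/ml for 24 h at 37° C, 5% CO2. MCP-3 in cell-free supernatants measured by capture ELISA.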

[8] = system: CXCL1 (Gro-α) release by human PBMC; test: Chemokine induction in PBMC (capture ELISA); type: cell-based; details: background (196) subtracted
Outline: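 Human PBMC from healthy donors' heparinised blood (Ficoll), 7.5×10^5 cells treated with 20 or 100 μg/ml peptide for 24 h at 37° C, 5% CO2. Cell-free supernatants assayed for CXCL1 by capture ELISA.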

[9] = system: cord blood mononuclear cells (CBMC); test: Adjuvant properties: cytokine/chemokine induction by peptides alone and with CpG oligonucleotides and polyphosphazene P6; type: cell-based, human; details: peptide alone 20 ug/mL, background subtracted
Excerpt: It is well accepted that vaccine immunization is best achieved by co-administration of an adjuvant. The precise mechanism by which these adjuvants work has eluded immunologists but appears to work in part by upregulating elements of innate immunity that smooth the transition to adaptive (antigen-specific) immunity (Bendelac A and R. Medzhitov. 2002. Adjuvants of immunity: Harnessing innate immunity to promote adaptive immunity J. Exp. Med. 195:F19-F23). Within this concept there are several possible avenues by which adjuvants might work including the attraction of immune cells into the site at which a particular antigen is injected, through e.g., upregulation of chemokines, the appropriate activation of cells when they reach that site, which can be caused by local cell or tissue damage releasing endogenous adjuvants or through specific cell activation by the adjuvants, and the compartmentalization of immune responses to the site of immunization (the so-called “depot” effect). […] Therefore we studies the ability of our small host defence peptides to upregulate adjuvant responses in both human PBMC and cord blood mononuclear cells (CBMC) (representing the responses of blood cells from neonates), both alone (Table 10 and 11) and in combination with other proposed adjuvant agents that might work through other mechanisms such as CpG oligodeoxy ribonucleotides (TLR9 agionists that activate cells through interaction with TLR9 and fit into 3 different classes A=molecule 2336, B=10103 and C=2395), and polyphosphazene P6 (which induces a depot effect).

## CC[C@H](C)[C@H](N)C(=O)N[C@@H](Cc1c[nH]c2ccccc12)C(=O)N[C@H](C(=O)N[C@H](C(=O)N[C@@H](Cc1c[nH]c2ccccc12)C(=O)N[C@@H](CCCNC(=N)N)C(=O)N[C@@H](CCCNC(=N)N)C(N)=O)[C@@H](C)CC)C(C)C [HH18, IWVIWRR-NH2] (H-IWVIWRR-NH2; N-terminus assumed)
[1]
  MIC P. aerug: 50 µg/mL (≈ 48.7 µM)
[2]
  MIC E. faecalis: 25 µg/mL (≈ 24.3 µM)
Escherichia coli UB1005
  MIC E. coli: 6 µg/mL (≈ 5.84 µM)
[3]
  MIC S. aureus: 25 µg/mL (≈ 24.3 µM)
[4]
  MIC S. epi.: 6 µg/mL (≈ 5.84 µM)
[5]
  MIC C. albicans: 25 µg/mL (≈ 24.3 µM)
[6]
  MIC S. typhi: 12.5 µg/mL (≈ 12.2 µM)
[7]; 20 μg/ml peptide
  Chemokine induction MCP-3: 32 pg/mL
[7]; 100 μg/ml peptide
  Chemokine induction MCP-3: 431 pg/mL
[8]; 20 μg/ml peptide
  Chemokine induction Gro-α: 865 pg/mL
[8]; 100 μg/ml peptide
  Chemokine induction Gro-α: 2964 pg/mL
[9]
  Cytokines induced: Gro-α: 55 pg/mL
  Cytokines induced: IL-6: 7 pg/mL
  Cytokines induced: IL-8: 372 pg/mL
  Cytokines induced: MCP-1: 54 pg/mL
  Cytokines induced: MCP-3: -24 pg/mL
  Cytokines induced: TNF-α: -4 pg/mL
